Results published in US20170073337A1, “DIHYDROTHIAZINE AND DIHYDROOXAZINE DERIVATIVES HAVING BACE1 INHIBITORY ACTIVITY” (Shionogi & Co., Ltd., priority 2014, published 2017).

Columns and labels:
[1] = Pharmacokinetic study (oral absorption); assay type: in vivo; conditions: bioavailability from AUCs of oral and intravenous administration; mouse or rat
Method: (1l) Animal: mouse or rat (2) Breeding conditions: mouse or rat was allowed free access to the tap water and the solid food. (3) Dose and grouping: orally or intravenously administered at a predetermined dose: grouping was as follows (Dose depends on the compound) Oral administration: 1 to 30 mg/kg (n=2 to 3) Intravenous administration: 0.5 to 10 mg/kg (n=2 to 3) (4) Dosing formulation: for oral administration, in a solution or a suspension state; for intravenous administration, in a solubilized state (5) Dosing method: in oral administration, forcedly administer using a syringe attached a flexible feeding tube; in intravenous administration, administer from caudal vein using a syringe attached with a needle. (6) Evaluation items: blood was collected at the scheduled time, and the plasma concentration of the compound of the present invention was measured by LC/MS/MS (7) Statistical analysis: regarding the transition of the plasma concentration of the compound of the present invention, the area under the plasma concentration-time curve (AUC) was calculated by non-linear least squares program WinNonlin (Registered trademark), and the bioavailability (BA) of the compound of the present invention was calculated from the AUCs of the oral administration group and intravenous administration group

[2] = Brain distribution studies; assay type: in vivo; conditions: rat, brain / plasma, iv, 0.5 mg/mL/kg, 30 minutes later, area ratio brain/plasma
Method: Compound of the present invention was intravenously administered to a rat at 0.5 mg/mL/kg dosage. 30 minutes later, all blood was drawn from the abdominal aorta under isoflurane anesthesia for death from exsanguination. […] The obtained blood was used as plasma after centrifuging. The control plasma was added to the brain sample at 1:1. The control brain homogenate was added to the plasma sample at 1:1. Each sample was measured using LC/MS/MS. The obtained area ratio (a brain/plasma) was used for the brain Kp value.

[3] = test system: Aβ production in neuroblastoma SH-SY5Y cells (SH/APPwt); assay: β-amyloid (Aβ) production inhibitory effect in cell: 384-well; assay type: cell-based; conditions: Homo sapiens, Assay format 384-well
Outline: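 SH-SY5Y cells overexpressing human wild-type APP were seeded together with test compound (final DMSO 1%) and cultured for 21 h. Aβ1-40 in the supernatant was measured by HTRF after overnight incubation at 4 °C in the dark, reading fluorescence at 620 and 665 nm.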

Row | Compound | BA_% [1] [%] | Kp at 0.5 h [2] | IC50 [3] [nM]
1 | C[C@@H](F)[C@H]1OC(N)=N[C@](C)(c2cc(NC(=O)c3ccc(C#N)cn3)ccc2F)[C@H]1F [Compound I-15] | 37.4 | 0.79 | 
2 | CO[C@H]1[C@@H](CF)OC(N)=N[C@]1(C)c1cc(NC(=O)c2cnc(OCF)cn2)ccc1F [Compound I-24] | 44 |  | 
3 | COc1ccc(C(=O)Nc2ccc(F)c([C@@]3(C)N=C(N)S[C@H](C)[C@@H]3F)c2)nc1 [Compound I-50] |  |  | 0.39
4 | C[C@H]1SC(N)=N[C@](C)(c2cc(NC(=O)c3ccc(OCF)cn3)ccc2F)[C@H]1F [Compound I-51] |  |  | 0.41
5 | COc1cnc(C(=O)Nc2ccc(F)c([C@@]3(C)N=C(N)SCC34CC(F)(F)C4)c2)cn1 [Compound I-55] |  |  | 0.3
6 | C[C@H]1SC(N)=N[C@](C)(c2cc(NC(=O)c3cnc(OCF)cn3)ccc2F)C12CC(F)(F)C2 [Compound I-62] |  | 4.8 | 0.25
7 | CC[C@H]1SC(N)=N[C@](C)(c2cc(NC(=O)c3cnc(OCF)cn3)ccc2F)[C@H]1F [Compound I-66] |  |  | 0.13
8 | CC[C@H]1SC(N)=N[C@](C)(c2cc(NC(=O)c3ccc(OCF)cn3)ccc2F)[C@H]1F [Compound I-67] |  |  | 0.56
9 | CC[C@H]1SC(N)=N[C@](C)(c2cc(NC(=O)c3ccc(F)cn3)ccc2F)[C@H]1F [Compound I-70] |  |  | 2
10 | CC(F)(F)[C@H]1OC(N)=N[C@](C)(c2cc(NC(=O)c3cnc(OCC(F)(F)F)cn3)ccc2F)[C@H]1F [Compound I-75] |  |  | 8.3
11 | C[C@]1(c2cc(NC(=O)c3ccc(C#N)cn3)ccc2F)N=C(N)O[C@H](C(F)(F)C2CC2)[C@@H]1F [Compound I-81] |  |  | 21
12 | CO[C@H]1[C@@H](C)SC(N)=N[C@]1(C)c1cc(NC(=O)c2ccc(C#N)cn2)ccc1F [Compound I-88] |  |  | 0.13
13 | CO[C@H]1[C@@H](C)SC(N)=N[C@]1(C)c1cc(NC(=O)c2ccc(F)cn2)ccc1F [Compound I-89] |  |  | 1.5
14 | COc1cnc(C(=O)Nc2ccc(F)c([C@@]3(C)N=C(N)S[C@H](C)[C@@H]3OC)c2)cn1 [Compound I-90] |  |  | 0.51
15 | COC[C@H]1SC(N)=N[C@](C)(c2cc(NC(=O)c3cnc(OCF)cn3)ccc2F)[C@H]1F [Compound I-91] |  | 1 | 0.25
16 | C[C@]1(c2cc(NC(=O)c3ccc(C#N)cn3)ccc2F)N=C(N)O[C@H](C2(F)CC2)[C@@H]1F [Compound I-96] |  |  | 1.8
17 | C[C@]1(c2cc(NC(=O)c3ccc(OCF)cn3)ccc2F)N=C(N)O[C@H](C2(F)CC2)[C@@H]1F [Compound I-101] |  |  | 11
18 | COc1cnc(C(=O)Nc2cccc([C@@]3(C)N=C(N)S[C@H](C)[C@@H]3F)c2)cn1 [Compound I-103] |  |  | 2.1
19 | C[C@H]1SC(N)=N[C@](C)(c2cccc(NC(=O)c3cnc(OCF)cn3)c2)[C@H]1F [Compound I-104] |  |  | 0.49
20 | C[C@H]1SC(N)=N[C@](C)(c2cccc(NC(=O)c3cnc(C(F)F)cn3)c2)[C@H]1F [Compound I-106] |  |  | 2.6
21 | COc1ccc(C(=O)Nc2ccc(F)c([C@@]3(C)N=C(N)S[C@H](C)[C@@H]3F)c2)nn1 [Compound I-108] |  |  | 8.8
22 | C[C@]1(c2cc(NC(=O)c3cnc(OCF)cn3)ccc2F)N=C(N)S[C@H](CO)[C@@H]1F [Compound I-109] |  |  | 0.45

Continued, values first:

Row | BA_% [1] [%] | Kp at 0.5 h [2] | IC50 [3] [nM] | Compound
23 | 46.3 | 1.1 |  | C[C@]1(c2cc(NC(=O)c3ccc(C#N)cn3)ccc2F)N=C(N)O[C@H](CF)[C@@H]1OCC(F)(F)F [Compound I-10]
24 | 47.4 | 1 |  | C[C@]1(c2cc(NC(=O)c3cnc(OCF)cn3)ccc2F)N=C(N)O[C@H](CF)[C@@H]1OCC(F)(F)F [Compound I-12]
25 | 47.3 | 0.56 |  | C[C@H](F)[C@H]1OC(N)=N[C@](C)(c2cc(NC(=O)c3ccc(C#N)cn3)ccc2F)[C@H]1F [Compound I-13]
26 | 39.1 | 0.51 |  | CO[C@H]1[C@@H](CF)OC(N)=N[C@]1(C)c1cc(NC(=O)c2cnc(OCF)cn2)ccc1Cl [Compound I-19]
27 |  |  | 0.025 | C[C@H]1SC(N)=N[C@](C)(c2cc(NC(=O)c3coc(CF)n3)ccc2F)[C@H]1F [Compound I-49]
28 | 39.1 | 0.63 | 0.42 | Cc1cc(C#N)cnc1C(=O)Nc1ccc(F)c([C@@]2(C)N=C(N)S[C@H](C)[C@@H]2F)c1 [Compound I-52]
29 |  |  | 0.89 | C[C@H]1SC(N)=N[C@](C)(c2cc(NC(=O)c3ncc(OCC(F)(F)F)cn3)ccc2F)[C@H]1F [Compound I-53]
30 |  |  | 0.058 | C[C@]1(c2cc(NC(=O)c3ccc(C#N)cn3)ccc2F)N=C(N)SCC12CC(F)(F)C2 [Compound I-59]
31 |  |  | 5.4 | C[C@H]1SC(N)=N[C@](C)(c2cc(NC(=O)c3ccc(F)cn3)ccc2F)C12CC(F)(F)C2 [Compound I-63]
32 |  |  | 0.22 | C[C@H]1SC(N)=N[C@](C)(c2cc(NC(=O)c3ncc(C#N)cc3Cl)ccc2F)[C@H]1F [Compound I-64]
33 |  | 1.7 | 1.1 | C[C@H]1SC(N)=N[C@](C)(c2cc(NC(=O)c3cnc(C(F)F)cn3)ccc2F)[C@H]1F [Compound I-65]
34 |  |  | 0.54 | COc1cnc(C(=O)Nc2ccc(F)c([C@@]3(C)N=C(N)O[C@H]([C@@H](C)F)[C@@H]3F)c2)cn1 [Compound I-71]
35 |  |  | 1.6 | CC#CCOc1cnc(C(=O)Nc2ccc(F)c([C@@]3(C)N=C(N)O[C@H](C(C)(F)F)[C@@H]3F)c2)cn1 [Compound I-76]
36 |  |  | 79 | CC(F)(F)[C@H]1OC(N)=N[C@](C)(c2cc(NC(=O)c3cnc(OCC(F)F)cn3)ccc2F)[C@H]1F [Compound I-77]
37 |  |  | 4.5 | COCC(F)(F)[C@H]1OC(N)=N[C@](C)(c2cc(NC(=O)c3cnc(OCF)cn3)ccc2F)[C@H]1F [Compound I-79]
38 |  |  | 17 | C[C@]1(c2cc(NC(=O)c3cnc(OCF)cn3)ccc2F)N=C(N)O[C@H](C(F)(F)C2CC2)[C@@H]1F [Compound I-82]
39 |  |  | 14 | COc1cnc(C(=O)Nc2ccc(F)c([C@@]3(C)N=C(N)O[C@H](C(F)(F)C4CC4)[C@@H]3F)c2)cn1 [Compound I-83]
40 |  |  | 4.8 | C[C@H]1SC(N)=N[C@](C)(c2cc(NC(=O)c3cnc(OCC4CC4)cn3)ccc2F)[C@H]1F [Compound I-85]
41 |  |  | 2.21 | COc1cnc(C(=O)Nc2ccc(F)c([C@@]3(C)N=C(N)O[C@H](C(F)F)[C@@H]3C)c2)cn1 [Compound I-86]
42 |  |  | 0.66 | CO[C@H]1[C@@H](C)SC(N)=N[C@]1(C)c1cc(NC(=O)c2cnc(OCF)cn2)ccc1F [Compound I-87]
